{"source": "patent US20260199299A1", "about": "“BETA CARBOLINES AS TOPICAL ANTI-INFLAMMATORY AGENTS FOR APPLICATION TO MUCOUS MEMBRANES” (President and Fellows of Harvard College, priority 2022, published 2026)", "tested_on": "NFκB", "assay": "NFκB induction in primary monocytes (FIG. 9A-9C)", "type": "cell-based", "data": [{"smiles": "OCc1ccc(-c2nccc3c2[nH]c2ccccc23)o1", "note": "[Compound 8]", "values": [{"measurement": "suppression of NFκB induction in primary monocytes", "value": "suppression of NFκB induction"}]}]}
